Source: patent publication US20240384268A1, “Oligonucleotides” (Hudson Institute of Medical Research, priority 2021, published 2024)
In the oligonucleotide strings, read from the 5' end, every base follows the letter of its sugar. An asterisk marks phosphorothioate; unmarked linkages are phosphodiester. Other units and linkages are bracketed, terminal groups are in braces. A string of capitals states the bases alone. d = 2'-deoxy (DNA); m = 2'-O-methyl

Molecular target: T1, human TLR7 (Homo sapiens, UniProt Q9NYK1)
T1 construct: HA; host or cells: 293XL-hTLR7-HA (HEK293)
T1 sequence (Q9NYK1 27-1049): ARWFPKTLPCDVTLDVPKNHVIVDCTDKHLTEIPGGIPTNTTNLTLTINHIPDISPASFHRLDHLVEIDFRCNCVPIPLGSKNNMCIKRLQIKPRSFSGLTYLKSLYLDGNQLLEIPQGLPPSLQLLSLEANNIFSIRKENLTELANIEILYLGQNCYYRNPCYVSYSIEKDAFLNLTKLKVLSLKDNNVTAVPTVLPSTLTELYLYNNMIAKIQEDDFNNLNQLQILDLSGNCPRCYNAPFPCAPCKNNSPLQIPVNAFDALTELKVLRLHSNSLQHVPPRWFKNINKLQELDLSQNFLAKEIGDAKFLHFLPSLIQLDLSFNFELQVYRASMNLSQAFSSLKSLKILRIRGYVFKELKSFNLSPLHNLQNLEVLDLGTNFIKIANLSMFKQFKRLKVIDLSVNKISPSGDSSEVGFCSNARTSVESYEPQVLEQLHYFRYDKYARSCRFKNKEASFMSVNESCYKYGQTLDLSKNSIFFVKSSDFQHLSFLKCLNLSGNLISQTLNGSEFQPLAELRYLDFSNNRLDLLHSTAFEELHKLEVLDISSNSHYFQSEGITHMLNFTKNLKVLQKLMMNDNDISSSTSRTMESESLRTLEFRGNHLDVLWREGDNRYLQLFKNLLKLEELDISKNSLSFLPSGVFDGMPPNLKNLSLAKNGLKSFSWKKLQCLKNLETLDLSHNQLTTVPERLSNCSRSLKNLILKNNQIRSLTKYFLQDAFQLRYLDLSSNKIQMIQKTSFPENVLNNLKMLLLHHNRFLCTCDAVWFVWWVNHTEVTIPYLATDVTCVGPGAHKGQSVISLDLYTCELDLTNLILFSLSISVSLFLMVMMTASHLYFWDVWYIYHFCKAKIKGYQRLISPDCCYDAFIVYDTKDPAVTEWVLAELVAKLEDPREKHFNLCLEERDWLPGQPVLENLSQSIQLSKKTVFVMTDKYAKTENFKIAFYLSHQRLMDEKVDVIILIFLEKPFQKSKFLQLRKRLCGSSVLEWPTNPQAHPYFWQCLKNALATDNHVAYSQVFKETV
Test: HEK-TLR7 NF-κB-luciferase reporter, R848 stimulation
Assay type: cell-based
Conditions: for TLR7-100 nM: averaged NF-κB-Luciferase relative to R848: HEK-TLR7, 100 nM ASO, percentage of R848 without ASO (Alharbi et al., 2020); for TLR7 100 nM (averaged NF-κB-Luciferase level relative to R848 condition): ASO 100 nM; for TLR7 100 nM (averaged NF-κB-Luciferase level relative to R848 condition) / TLR7 500 nM (averaged NF-κB-Luciferase level relative to R848 condition): relative to R848 only, given as fraction; for TLR7 500 nM (averaged NF-κB-Luciferase level relative to R848 condition): ASO 500 nM

Substance | TLR7-100 nM: averaged NF-κB-Luciferase relative to R848 [%] | TLR7 100 nM (averaged NF-κB-Luciferase level relative to R848 condition) | TLR7 500 nM (averaged NF-κB-Luciferase level relative to R848 condition) | TLR7 100 nM (MOE-modified ASO at 100 nM, averaged NF-κB-Luciferase relative to R848 condition) | TLR7 500 nM (MOE-modified ASO at 500 nM, averaged NF-κB-Luciferase relative to R848 condition)
mA*mG*mC*mA*mG*T*C*T*C*C*A*T*G*T*C*mC*mC*mA*mG*mG (AGCAGTCTCCATGTCCCAGG; antisense; sugars from the 5' end m5 d10 m5, all phosphorothioate, methylation of C not given here) [[CDKN2B-AS1]2235] | 25.50 |  |  |  | 
GGTCTTGGCTTCGTGG (antisense; LNA-modified, pattern not given here) [MB21D1-523 LNA V1] |  | 0.481 | 0.042 |  | 
GGCACTTTGCCTCCTT (antisense; LNA-modified, pattern not given here) [EGFR-2859 LNA V1] |  | 0.774 | 0.668 |  | 
TACTTTCCGAGGTGTC (antisense; LNA-modified, pattern not given here) [CAMSAP1-1739 LNA KL] |  | 0.738 | 0.451 |  | 
GCACTTCAGTCTGAGC (antisense; LNA-modified, pattern not given here) [MB21D1-719 LNA KL] |  | 0.713 | 0.168 |  | 
AGGTCTTGGCTTCGTG (antisense; LNA-modified, pattern not given here) [MB21D1-524 LNA V1] |  | 0.457 | 0.050 |  | 
ACTTCGTGGGGTCCTT (antisense; LNA-modified, pattern not given here) [HPRT LNA-663 V1] |  | 0.804 | 0.736 |  | 
AACACTTCGTGGGGTC (antisense; LNA-modified, pattern not given here) [HPRT LNA-666 V1] |  | 0.899 | 0.445 |  | 
TGGTCCACAACCCCTT (antisense; LNA-modified, pattern not given here) [MB21D1-697 LNA V1] |  | 1.008 | 0.545 |  | 
mG*mU*mG*mU*mU*T*T*T*A*A*T*T*T*T*G*mU*mA*mG*mA*mG (mG*mU*mG*mU*mU*dT*dT*dT*dA*dA*dT*dT*dT*dT*dG*mU*mA*mG*mA*mG) [[CDKN2B-AS1]611] | 23.63 |  |  |  | 
TCCTTGCACGTGGCTT (antisense; LNA-modified, pattern not given here) [EGFR-1014 LNA V1] |  | 0.812 | 0.482 |  | 
mG*mU*mC*mU*mC*C*A*T*G*T*C*C*C*A*G*mG*mC*mC*mU*mC (mG*mU*mC*mU*mC*dC*dA*dT*dG*dT*dC*dC*dC*dA*dG*mG*mC*mC*mU*mC) [[CDKN2B;AS1]2231] | 23.75 |  |  |  | 
GACTATACGCGCAATA (antisense; LNA-modified, pattern not given here) [NC5 LNA PS 3-10-3] |  | 0.282 | 0.098 |  | 
AGCTTCGAGGCCCCAG (antisense; LNA-modified, pattern not given here) [MB21D1-616 LNA V1] |  | 0.554 | 0.111 |  | 
AAAGGACTGAGGAAAG (antisense; LNA-modified, pattern not given here) [CAMSAP1-6273 LNA KL] |  | 0.513 | 0.267 |  | 
ACACTTCGTGGGGTCCTTTT (antisense; 2'-MOE modified, pattern not given here) [HPRT-663 MOE] |  |  |  | 0.403 | 0.235
